Test results: patent US11938114B2, “Bacterial efflux pump inhibitors” (priority 2017, dated 2024)
Structures can show the parent of a compound that is named as a salt. Marks after values point to notes of the source that are not given here.

Experiments:
P. aeruginosa ATCC 27853 [1] = assay: Standard EPI assay: MIC of test antibiotic (levofloxacin, cefepime) in absence and presence of EPI; format: cell-based, Pseudomonas aeruginosa; details: for Enhanced Activity in P. aeruginosa (fold enhancement of antibiotic activity): levofloxacin as antibiotic, Pseudomonas aeruginosa ATCC 27853
Description: (§1) MIC assays were conducted in accordance with Clinical and Laboratory Standards Institute (CLSI) guidelines for broth microdilution.
(§2) The EPI assay for the purposes of these studies represents a MIC assay in which the MIC of the antibiotic against the bacteria is tested in the presence of an experimental efflux pump inhibitor (EPI). […] Using serial dilutions of the EPI, its enhancement of antibiotic activity was then evaluated. […] For the evaluation of the efficacy of an EPI against bacteria that were pre-exposed to an antibiotic, the inoculum of bacteria that used was developed from a bacterial culture isolated as a single colony following exposure at […] the MIC of the antibiotic (so as to induce efflux pump expression), was to be used in combination with the EPI.
(§3) The MIC of the test antibiotic is determined in the absence and presence of sub-inhibitory concentrations of the EPI. Initially, the sub-inhibitory concentration used was ½×MIC of the EPI. […] Similar methodology was employed to examine the synergy with Escherichia coli ATCC 25922 in the presence of varied concentrations of these EPIs using clarithromycin as the antibiotic.

[2] = system: Escherichia coli ATC 25922; assay: Bacterial EPI assay: MIC of clarithromycin in the presence of EPI; format: cell-based; details: clarithromycin as antibiotic
Description: as §1, §2, §3

P. aeruginosa ATCC 27853 [3] = assay: Intrinsic MIC assay (CLSI broth microdilution); format: cell-based; details: Pseudomonas aeruginosa, ATCC27853, read-out: intrinsic MIC of the EPI
Description: as §1
The intrinsic MIC of the experimental EPIs was tested with the method described. The 2-fold serial dilution begin with 100 μg/mL of tested compound in the first column of the 96-well plates.
The following Gram-negative bacterial strains were included in these assays: • Escherichia coli ATCC 25922 • Klebsiella pneumoniae ATCC 13883 and ATCC 10031 • Pseudomonas aeruginosa ATCC 27853. • Acinetobacter baumannii ATCC 19606 Bacterial EPI Assays Tier 1 Testing

[4] = system: P. aeruginosa [ATCC 27853]; assay: Mouse septicemia model of infection; format: in vivo, Pseudomonas aeruginosa; details: mice, Experiment #489, cefepime, 10 mg/ml b.i.d.
Description: A general method for the in vivo assessment of bacterial EPIs is complicated by the fact that that both the antibiotic and the EPI need to be present for synergy to be achieved. A general method was discovered that has proven to be effective in establishing the relative efficacy of bacterial EPIs in a mouse septicemia model. The bacterial EPI is administered initially intravenously to mice with septicemia, followed 5 minutes later by the intravenous administration or oral administration of the antibiotic. A second administration of the EPI is then administered subcutaneously after an additional 5 minutes to act as a booster, followed by the final administration of the antibiotic either intravenously or orally after the second administration of the EPI. […] In a few instances, a second regiment of both EPI and antibiotic as administered on day 1 was required after 24 hours to affect cures.
Determination of the in vivo efficacy of bacterial efflux pump inhibitors (EPIs) can be efficiently determined using a mouse septicemia model of infection. The systemic infection is initiated by a 500 ul intraperitoneal injection of an inoculum containing bacteria (such as P. aeruginosa [ATCC 27853]) at a concentration of approximately 5×10^5 cells in 5% mucin in Swiss Webster female mice. […]

[5] = system: P. aeruginosa ATCC 27853 pre-exposed to cefepime; assay: Pre-exposure bacterial EPI assay; format: cell-based, Pseudomonas aeruginosa
Description: as §2
The principle underlying this pre-exposure is that exposure of the bacteria to sub-inhibitory concentrations of the test antibiotic will induce expression of efflux pumps, if any, and may represent the scenario in vivo more accurately.

[6] = P. aeruginosa ATCC 27853, 6.25 μg/mL of the EPI

With Cl.Cl.NC[C@@H]1CNC(CNC(=O)c2cc(-c3ccc(C(F)(F)F)cc3)cc(-c3ccc(C(F)(F)F)cc3)c2)C1 (stereo in doubt) [Example 9, N-(((2R,4R)-4-(Aminomethyl)pyrrolidin-2-yl)methyl)-4,4″-bis(trifluoromethyl)-[1,1′:3′,1″-terphenyl]-5′-carboxamide hydrochloride salt] the “Enhanced Activity in P. aeruginosa (fold enhancement of antibiotic activity)” value (P. aeruginosa ATCC 27853 [1]; EPI at 12.5 μg) was 4x/12.5 μg.
For Cl.Cl.N[C@@H]1CN[C@H](CNC(=O)c2cc(-c3ccc(F)cc3)cc(-c3ccc(F)cc3)c2)C1 [Example 1, N-(((2S, 4S)-4-aminopyrrolidin-2-yl)methyl)-4,4″-difluoro-[1, 1′:3′, 1′-terphenyl]-5′-carboxamide dihydrochloride], the “Enhanced Activity in E. coli (fold enhancement of antibiotic activity)” value ([2]; EPI at 6.25 μg) was 64x/6.25 μg and the “Enhanced Activity in P. aeruginosa (fold enhancement of antibiotic activity)” value (P. aeruginosa ATCC 27853 [1]; EPI at 6.25 μg) was 2x/6.25 μg.
With CC(C)(C(=O)NC[C@@H]1C[C@H](N)CN1)c1cc(-c2ccc(F)cc2)cc(-c2ccc(F)cc2)c1.Cl.Cl [Example 2] the “Enhanced Activity in E. coli (fold enhancement of antibiotic activity)” value ([2]; EPI at 6.25 μg) was 8x/6.25 μg.
CC(C)(N)C1CN[C@H](CNC(=O)c2cc(-c3ccc(F)cc3)cc(-c3ccc(F)cc3)c2)C1.Cl.Cl (stereo partly drawn) [Example 3, N-(((2S)-4-(2-aminopropan-2-yl)pyrrolidin-2-yl)methyl)-4,4″-difluoro-[1,1′:3′, 1″-terphenyl]-5′-carboxamide dihydrochloride] was tested, and the “Enhanced Activity in E. coli (fold enhancement of antibiotic activity)” value ([2]; EPI at 12.5 μg) was 1024x/12.5 μg and the “Enhanced Activity in P. aeruginosa (fold enhancement of antibiotic activity)” value (P. aeruginosa ATCC 27853 [1]; EPI at 12.5 μg) was 32x/12.5 μg.
In the case of Cl.Cl.NC[C@@H]1CN[C@H](CNC(=O)c2cc(-c3ccc(F)cc3)cc(-c3ccc(F)cc3)c2)C1 [Example 4, N-(((2S,4R)-4-(aminomethyl)pyrrolidin-2-yl)methyl)-4,4″-difluoro-[1,1′:3′,1″-terphenyl]-5′-carboxamide dihydrochloride], the MIC (P. aeruginosa ATCC 27853 [3]) is reported as 12.5 µg/mL, the “% Survival (72 hr) Antibiotic + EPI” value ([4]; 250 ul + Example 4, 2.0 mg/ml b.i.d.) is reported as 100% and the “Enhanced Activity in E. coli (fold enhancement of antibiotic activity)” value ([2]; EPI at 3.125 μg) is reported as 512x/3.125 μg. For the same compound, the “MIC of cefepime against cefepime-exposed P. aeruginosa in the presence of EPI” value ([5]; 6.25 μg/mL of the EPI) was 0.25 µg/mL, the “reduction of MIC of cefepime against cefepime-exposed P. aeruginosa” value ([5]; 6.25 μg/mL of the EPI) was 64 fold and the “MIC of levofloxacin in the presence of EPI” value (P. aeruginosa ATCC 27853 [1]; P. aeruginosa ATCC 27853, 6.25 μg/mL (½×MIC) of the EPI) was 0.016 µg/mL. For the same compound, the “MIC of cefepime in the presence of EPI” value (P. aeruginosa ATCC 27853 [1]; [6]) was 0.125 µg/mL, the “decrease of the MIC of cefepime relative to absence of EPI” value (P. aeruginosa ATCC 27853 [1]; [6]) was 16 fold and the “reduction of the MIC of levofloxacin relative to absence of EPI” value (P. aeruginosa ATCC 27853 [1]; [6]) was 64 fold. The “Enhanced Activity in P. aeruginosa (fold enhancement of antibiotic activity)” value (P. aeruginosa ATCC 27853 [1]; EPI at 6.25 μg) was 64x/6.25 μg.
Cl.Cl.NC[C@H]1CN[C@H](CNC(=O)c2cc(-c3ccc(F)cc3)cc(-c3ccc(F)cc3)c2)C1 [Example 5, N-(((2S,4S)-4-(aminomethyl)pyrrolidin-2-yl)methyl)-4,4″-difluoro-[1,1′:3′,1″-terphenyl]-5′-carboxamide dihydrochloride] was tested, and the “Enhanced Activity in E. coli (fold enhancement of antibiotic activity)” value ([2]; EPI at 6.25 μg) was 1024x/6.25 μg and the “Enhanced Activity in P. aeruginosa (fold enhancement of antibiotic activity)” value (P. aeruginosa ATCC 27853 [1]; EPI at 6.25 μg) was 32x/6.25 μg.
For Cl.Cl.NC[C@@H]1CN[C@H](COc2cc(-c3ccc(F)cc3)cc(-c3ccc(F)cc3)c2)C1 [Example 6, ((3R,5S)-5-(((4,4″-difluoro-[1,1′:3′,1″-terphenyl]-5′-yl)oxy)methyl)pyrrolidin-3-yl)methanamine dihydrochloride], the “Enhanced Activity in E. coli (fold enhancement of antibiotic activity)” value ([2]; EPI at 3.125 μg) was 32x/3.125 μg and the “Enhanced Activity in P. aeruginosa (fold enhancement of antibiotic activity)” value (P. aeruginosa ATCC 27853 [1]; EPI at 6.25 μg) was 1x/6.25 μg.
In the case of Cl.Cl.NC[C@H]1CN[C@H](COc2cc(-c3ccc(F)cc3)cc(-c3ccc(F)cc3)c2)C1 [Example 7], the “Enhanced Activity in E. coli (fold enhancement of antibiotic activity)” value ([2]; EPI at 3.125 μg) is reported as 64x/3.125 μg and the “Enhanced Activity in P. aeruginosa (fold enhancement of antibiotic activity)” value (P. aeruginosa ATCC 27853 [1]; EPI at 6.25 μg) is reported as 2x/6.25 μg.
NC[C@@H]1C[C@H](Oc2cc(-c3ccc(F)cc3)cc(-c3ccc(F)cc3)c2)CN1 [Example 8, ((2S,4S)-4-((4,4″-difluoro-[1,1′:3′,1″-terphenyl]-5′-yl)oxy)pyrrolidin-2-yl)methanamine] was tested, and the “Enhanced Activity in E. coli (fold enhancement of antibiotic activity)” value ([2]; EPI at 6.25 μg) was 2x/6.25 μg and the “Enhanced Activity in P. aeruginosa (fold enhancement of antibiotic activity)” value (P. aeruginosa ATCC 27853 [1]; EPI at 12.5 μg) was 1x/12.5 μg.
With CC(C)(C(=O)NC[C@@H]1C[C@H](CN)CN1)c1cc(-c2ccc(F)cc2)cc(-c2ccc(F)cc2)c1 [Example 10, N-(((2S,4R)-4-(aminomethyl)pyrrolidin-2-yl)methyl)-2-(4,4″-difluoro-[1,1′:3′,1″-terphenyl]-5′-yl)-2-methylpropanamide hydrochloride salt] the “Enhanced Activity in E. coli (fold enhancement of antibiotic activity)” value ([2]; EPI at 6.25 μg) was 512x/6.25 μg.
In the case of CN1C[C@H](CN)C[C@H]1CNC(=O)c1cc(-c2ccc(F)cc2)cc(-c2ccc(F)cc2)c1 [Example 11, N-(((2S,4S)-4-(aminomethyl)-1-methylpyrrolidin-2-yl)methyl)-4,4″-difluoro-[1,1′:3′,1″-terphenyl]-5′-carboxamide hydrochloride salt], the “Enhanced Activity in E. coli (fold enhancement of antibiotic activity)” value ([2]; EPI at 6.25 μg) is reported as 128x/6.25 μg.
CN(C)C[C@H]1CN[C@H](CNC(=O)c2cc(-c3ccc(F)cc3)cc(-c3ccc(F)cc3)c2)C1 [Example 12, N-(((2S,4R)-4-((dimethylamino)methyl)pyrrolidin-2-yl)methyl)-4,4″-difluoro-[1,1′:3′,1″-terphenyl]-5′-carboxamide hydrochloride salt] was tested, and the “Enhanced Activity in E. coli (fold enhancement of antibiotic activity)” value ([2]; EPI at 25 μg) was 2x/25 μg.
In the case of CNC[C@@H]1CN[C@H](CNC(=O)c2cc(-c3ccc(F)cc3)cc(-c3ccc(F)cc3)c2)C1 [Example 14, 4,4″-difluoro-N-(((2S,4R)-4-((methylamino)methyl)pyrrolidin-2-yl)methyl)-[1,1′:3′,1″-terphenyl]-5′-carboxamide hydrochloride salt], the “Enhanced Activity in E. coli (fold enhancement of antibiotic activity)” value ([2]; EPI at 6.25 μg) is reported as 64x/6.25 μg and the “Enhanced Activity in P. aeruginosa (fold enhancement of antibiotic activity)” value (P. aeruginosa ATCC 27853 [1]; EPI at 12.5 μg) is reported as 32x/12.5 μg.
In the case of CO/N=C(\C(=O)N[C@@H]1C(=O)N2C(C(=O)[O-])=C(C[N+]3(C)CCCC3)CS[C@H]12)c1csc(N)n1 [cefepime, reference compound], the “% Survival (72 hr) Antibiotic Only” value ([4]; 250 ul) is reported as 0%**** and the “increase of MIC of cefepime against pre-exposed versus unexposed P. aeruginosa” value ([5]; pre-exposed to cefepime, no EPI) is reported as 8 fold.
